Laboratory results taken from paper PMC10856415, “Lactoferricin B Combined with Antibiotics Exhibits Leukemic Selectivity and Antimicrobial Activity” (Molecules, 2024).
Square brackets hold non-standard residues; d marks the D form. Ends that are not written are not given here. Peptide text beside a SMILES is read from it. * marks the point of attachment. X1 = N[C@@H](CS*)C(=O)N1CCN(c2cc3c(cc2F)c(=O)c(C(=O)O)cn3C2CC2)CC1; X2 = O=C(Cn1cc(CC(O)(Cn2cncn2)c2ccc(F)cc2F)nn1)*; Nle = CCCC[C@H](N)C(=O)O

Columns and labels:
BT20 = assay: Cell proliferation (EC50, selectivity index) on BT20; format: cell-based, human; conditions: normalized to EC50
Protocol: (§1) To evaluate their effect on leukemia, cancer, and non-cancer cells, the Malignancy Selectivity Index was calculated as MSI = EC50 (non-cancerous)/EC50 (leukemic or cancerous) or EC50 (leukemic or cancerous)/EC50 (leukemic or cancerous).
(§2) Supplementary Table S1. […] 4. […]
(§3) of incubation; The initial cellular density for HL60 was 5,000 cells, and for HEK293, it was 1,500 cells […]
(§4) Supplementary Table S2. […] The conversion from IC50 to EC50 was performed following the method outlined in [62]; For IC50 values, please refer to Supplementary […]
(§5) For MIC and IC50 data, please also refer to Ptaszyńska et al., 2019. Abbreviations: S. e. - Staphylococcus epidermidis ATCC 12228; B. s. - Bacillus subtilis ATCC 6633; S. a. - Staphylococcus aureus ATCC 25923; P. a - Pseudomonas aeruginosa ATCC 27853; B. c - Bacillus cereus PCM 2003; C. k. - Candida krusei DSM 6128; C. p. - Candida parapsilosis DSM 5784; C. a. - Candida albicans ATCC 10231; C. g. - Candida glabrata DSM 11226; C. t. - Candida […]

A549 = assay: Cell proliferation (EC50, selectivity index) on A549; format: cell-based, human; conditions: normalized to EC50
Protocol: as §1, §2, §3, §4, §5

HEK293 [1] = assay: MTT drug sensitivity assay on HEK293; format: cell-based, human; conditions: normalized to EC50
Protocol: (§6) As mentioned in [61], we followed detailed procedures, including the composition of media and growth conditions, for the application of conjugate 4 on both HL60 and HEK293 in the MTT drug sensitivity assay. The initial cellular density for cultures seeded in a 96-well plate was 5000 cells/well for HL60 and 1500 cells/well for HEK293.
as §2, §3, §4, §5

HL60 [2] = assay: MTT drug sensitivity assay on HL60; format: cell-based, human; conditions: normalized to EC50
Protocol: as §6, §2, §3, §4, §5

Candida krusei DSM 6128 = conditions: C. krusei, relative to IC50 of HL60
HL60 [3] = assay: Mitochondrial potential, DiOC6(3) flow cytometry in HL60; format: cell-based, human; conditions: HL60 stained with DIOC6(3)
Protocol: HL60 was incubated with 100 nM 3,3′-dihexyloxacarbocyanine iodide (DiOC6(3)) (Cat. D273, Thermo Fisher Scientific). Cells were stained under culture conditions for 15 min, washed with prewarmed PBS, and examined by Guava EasyCyte flow cytometer (Merck-Millipore, USA). The results of flow cytometry were analyzed with Flowing Software 2.5.1 (Turku Bioscience, Finland).

S. aureus = assay: Switch of S. aureus asymmetric phosphatidylserine location (Annexin V / 7AAD); format: cell-based, Staphylococcus aureus; conditions: MIC concentrations, first hour to 6 h
Protocol: Bacterial cultures with an […], as utilized in bacteriostatic experiments (Ptaszyńska et al., 2019 [16, 48]), were plated on Petri dishes. Compounds were added at the MIC concentration to the test sample, while no compound was added to the negative control. After an appropriate incubation period (45 min, […]), samples were collected and promptly washed with PBS. The pellet was then suspended in 100 μL of annexin binding buffer (BioSource International, Camarillo, CA, USA), which included 0.25 μL of 7-AAD (7-aminoactinomycin D, 1 mg/mL, Sigma) and 1 μL of Annexin–FITC (Thermo Fisher, Waltham, MA, USA). Following the addition of 400 μL of annexin binding buffer, the samples were left in the dark for 15 min. Subsequently, the samples were placed on ice and immediately read by the Guava EasyCyte (Merck-Millipore, Burlington, MA, USA). Flow results were analyzed with the free online software https://floreada.io/ (accessed on 30 November 2023; the last update was carried out in June 2023).

HL60 [4] = conditions: HL60, CM-H2DCFDA, compound at 2-fold IC90
Protocol: (§7) Cell lines were cultured as mentioned above and seeded in Petri dishes (Falcon, Cary, NC, USA) in the amount of 25 × 10^3 per Φ35 dish. HEK293 cells were allowed to attach overnight. ROS generation potential was tested for selected compounds after 0.25, 0.5, 1, 3, 6, and 24 h of incubation. The CM-H2DCFDA molecular probe (Thermo Fisher Scientific, Waltham, MA, USA) at a final concentration of 1 µM was added 15 min before the analysis. After staining, HEK293 cells were trypsinized, harvested, and suspended in fresh media. The 7AAD (Cat. A9400, Sigma Aldrich) was added just before analysis. Analyses were carried out with a Guava EasyCyte flow cytometer (Merck-Millipore, USA). Flow cytometry data were processed with Flowing Software 2.5.1 (Turku Bioscience, Turku, Finland).

HEK293 [5] = conditions: HEK293, CM-H2DCFDA, compound at 2-fold IC90
Protocol: as §7

## conjugate 1: covalently bonded LfcinB and LVX (FKCRRWQWRMKKLGAPSITCVRRAF; ends and bridges not checked; also: covalently bonded to levofloxacin, site not given here; UniProt P24627 36-60, looked up)
BT20; A549 vs BT20
  Malignancy Selectivity Index, BT20 section, A549 column: 2.9
BT20; HEK293 vs BT20
  Malignancy Selectivity Index, BT20 section, HEK293 column: 13.1
BT20; HL-60 vs BT20
  Malignancy Selectivity Index, BT20 section, HL-60 column: 0.3
A549; BT20 vs A549
  Malignancy Selectivity Index, A549 section, BT20 column: 0.3
A549; HEK293 vs A549
  Malignancy Selectivity Index, A549 section, HEK293 column: 4.4
A549; HL-60 vs A549
  Malignancy Selectivity Index, A549 section, HL-60 column: 0.1
HEK293 [1]; A549 vs HEK293
  Malignancy Selectivity Index, HEK293 section, A549 column: 0.2
HEK293 [1]; BT20 vs HEK293
  Malignancy Selectivity Index, HEK293 section, BT20 column: 0.1
HL60 [2]; A549 vs HL60
  Malignancy Selectivity Index, HL60 section, A549 column: 8.9
HL60 [2]; BT20 vs HL60
  Malignancy Selectivity Index, HL60 section, BT20 column: 3.0
HL60 [2]; HEK293 vs HL60
  Malignancy Selectivity Index, HL60 section, HEK293 column: 39.4
Candida krusei DSM 6128
  FSI (Fungistatic Selectivity Index): 2.9

## CCCC[C@H](NC(=O)[C@H](CCCNC(=N)N)NC(=O)[C@H](Cc1c[nH]c2ccccc12)NC(=O)[C@H](CCC(N)=O)NC(=O)[C@H](Cc1c[nH]c2ccccc12)NC(=O)[C@H](CCCNC(=N)N)NC(=O)[C@H](CCCNC(=N)N)NC(=O)[C@H](CSSC[C@H](N)C(=O)N1CCN(c2cc3c(cc2F)c(=O)c(C(=O)O)cn3C2CC2)CC1)NC(=O)[C@H](CCCCN)NC(=O)[C@@H](N)Cc1ccccc1)C(N)=O [conjugate 3] (H-FKC(X1)RRWQWR[Nle]-NH2; N-terminus assumed)
HL60 [3]
  Impact on mitochondrial potential: minimal impact
S. aureus
  Reduction in number of events (7AAD vs. Annexin V) compared to LfcinB: more pronounced

## CSCC[C@H](NC(=O)[C@H](CCCNC(=N)N)NC(=O)[C@H](Cc1c[nH]c2ccccc12)NC(=O)[C@H](CCC(N)=O)NC(=O)[C@H](Cc1c[nH]c2ccccc12)NC(=O)[C@H](CCCNC(=N)N)NC(=O)[C@H](CCCNC(=N)N)NC(=O)[C@H](CS)NC(=O)[C@H](CCCCN)NC(=O)[C@H](Cc1ccccc1)NC(=O)Cn1cc(CC(O)(Cn2cncn2)c2ccc(F)cc2F)nn1)C(N)=O (stereo partly shown) [conjugate 4] (X2-FKCRRWQWRM-NH2; N-terminus assumed)
HL60 [4]
  Levels of cellular ROS: negligible
HEK293 [5]
  Levels of cellular ROS: negligible
